Laboratory results as given in ChEMBL document CHEMBL3414460, “Antiprotozoal activity and DNA binding of dicationic acridones” (J Med Chem, 2015).
Values joined by “and” are separate entries in the source; they are usually repeats but may differ in a detail not shown here. Equal values may be shown once. Values belong to the compound of their own block, whether it stands above or below them. Active and inactive are the calls of the source. The calls are words filed in the database; no cut-off is given here.

Tests used:
[1] = Selectivity index, ratio of CC50 for rat L6 cells to IC50 for Plasmodium falciparum NF54; type: functional
[2] = Binding affinity to fish sperm DNA assessed as hypochromicity after 1 min by UV-Vis spectrophotometry; design: concentration or dose not given beside the values
[3] = (§1) Cytotoxicity against rat L6 cells; type: cell-based; settings: L6 cells
[4] = Selectivity index, ratio of CC50 for rat L6 cells to IC50 for bloodstream form of Trypanosoma brucei rhodesiense STIB900; type: functional
[5] = tested on: Trypanosoma brucei rhodesiense; experiment: Antiprotozoal activity against bloodstream form of Trypanosoma brucei rhodesiense STIB900 trypomastigote by alamar-blue assay; type: functional, organism-based
Plasmodium falciparum [6] = experiment: Antiprotozoal activity against intraerythrocytic stage of chloroquine-sensitive Plasmodium falciparum NF54 by [3H]hypoxanthine incorporation assay; type: functional, organism-based
Leishmania donovani = experiment: Antiprotozoal activity against axenic amastigote stage of Leishmania donovani MHOM-ET-67/L82 by alamar-blue assay; type: functional, organism-based
Plasmodium falciparum [7] = experiment: Antiprotozoal activity against intraerythrocytic stage of chloroquine/pyrimethamine-resistant Plasmodium falciparum K1 by [3H]hypoxanthine incorporation assay; type: functional, organism-based
Trypanosoma cruzi = experiment: Antiprotozoal activity against intracellular amastigote stage of Trypanosoma cruzi Tulahuen C4 by colorimetric assay; type: functional, organism-based
[8] = tested on: Trypanosoma brucei rhodesiense; experiment: Antitrypanosomal activity against Trypanosoma brucei rhodesiense STIB900 infected in NMRI mouse assessed as time duration by measuring mean day of relapse at 20 mg/kg, ip administered for 4 days; type: functional; settings: route intraperitoneal
[9] = tested on: Trypanosoma brucei rhodesiense; experiment: Antitrypanosomal activity against Trypanosoma brucei rhodesiense STIB900 infected in NMRI mouse assessed as cure at 20 mg/kg, ip administered for 4 days; type: functional, organism-based; design: dose 20 mg/kg
Hyperoartia [10] = experiment: Binding affinity to fish sperm DNA by circular dichroism spectroscopy
Hyperoartia [11] = experiment: Binding affinity to fish sperm DNA assessed as positive band of unvarying intensity at compound/DNA ratio 0.5 to 0.6 by circular dichroism spectroscopy
Hyperoartia [12] = experiment: Binding affinity to fish sperm DNA assessed as reduction in positive band at compound/DNA ratio 1 to 2 by circular dichroism spectroscopy
Hyperoartia [13] = experiment: Binding affinity to fish sperm DNA assessed as weak negative band at compound/DNA ratio 1 to 2 by circular dichroism spectroscopy
[14] = tested on: Trypanosoma brucei rhodesiense; experiment: Antitrypanosomal activity against Trypanosoma brucei rhodesiense STIB900 infected in NMRI mouse assessed as cure at 5 mg/kg, ip administered for 4 days; type: functional, organism-based; design: dose 5 mg/kg
[15] = Selectivity index, ratio of CC50 for rat L6 cells to IC50 for Plasmodium falciparum K1; type: functional
[16] = tested on: Trypanosoma brucei rhodesiense; experiment: Antitrypanosomal activity against Trypanosoma brucei rhodesiense STIB900 infected in NMRI mouse assessed as cure at 50 mg/kg, po administered for 4 days; type: functional, organism-based; design: dose 50 mg/kg
[17] = tested on: Trypanosoma brucei rhodesiense; experiment: Antitrypanosomal activity against Trypanosoma brucei rhodesiense STIB900 infected in NMRI mouse assessed as time duration by measuring mean day of relapse at 50 mg/kg, po administered for 4 days; type: functional
Mus musculus = experiment: Toxicity in NMRI mouse infected with Trypanosoma brucei rhodesiense STIB900 at 20 mg/kg, ip administered for 4 days; type: organism-based; design: dose 20 mg/kg, route intraperitoneal; settings: in vivo, 96 h
[18] = tested on: Trypanosoma brucei rhodesiense; experiment: Antitrypanosomal activity against Trypanosoma brucei rhodesiense STIB900 infected in NMRI mouse assessed as time duration by measuring mean day of relapse at 5 mg/kg, ip administered for 4 days; type: functional; settings: route intraperitoneal
L6 = experiment: as §1; type: cell-based; settings: l6

Compound: Cn1c2ccc(NC3=NCCN3)cc2c(=O)c2ccc(NC3=NCCN3)cc21.O=C(O)C(F)(F)F.O=C(O)C(F)(F)F
Ratio CC50/IC50 [1]: 175 | Activity [2]: 50% | CC50 [3]: 98 µM | Ratio CC50/IC50 [4]: 12287 | IC50 ([5]; Trypanosoma brucei, STIB900): 0.008 µM | IC50 (Plasmodium falciparum [6]; Plasmodium falciparum, NF54): 0.56 µM

Compound: Nc1cccc(Nc2ccc([N+](=O)[O-])cc2C(=O)O)c1
IC50 (Leishmania donovani): 61 µM | CC50 [3]: 266 µM | IC50 ([5]; Trypanosoma brucei, STIB900): 124 µM | IC50 (Plasmodium falciparum [7]): 70 µM | IC50 (Trypanosoma cruzi): 271 µM

Compound: Nc1ccc2[nH]c3ccc(N)cc3c(=O)c2c1
IC50 (Leishmania donovani): 321 µM | CC50 [3]: 75 µM | IC50 ([5]; Trypanosoma brucei, STIB900): 2.9 µM | IC50 (Plasmodium falciparum [7]): 2.5 µM | IC50 (Trypanosoma cruzi): 149 µM

Activity [2]: 47% | Activity (Hyperoartia [10]): Active | IC50 ([5]; Trypanosoma brucei, STIB900): 0.007 µM | IC50 (Plasmodium falciparum [6]; Plasmodium falciparum, NF54): 0.83 µM | IC50 (Trypanosoma cruzi): > 230 µM
Compound: Cl.Cl.O=c1c2ccc(NC3=NCCN3)cc2[nH]c2ccc(NC3=NCCN3)cc12
IC50 (Leishmania donovani): 73 µM | Time [8]: >50 days | Ratio CC50/IC50 [1]: 128 | CC50 [3]: 107 µM | Activity [9]: Active | Ratio CC50/IC50 [4]: 15257

Activity [2]: 40% and 35% | Activity (Hyperoartia [11]): Active | Activity (Hyperoartia [12]): Active | Activity (Hyperoartia [13]): Active | Activity (Hyperoartia [10]): Active
Compound: O=c1c2ccc(NC3=NCCN3)cc2[nH]c2cc(NC3=NCCN3)ccc12
Activity [14]: inactive

Compound: CCCCCCCCCCCCCCCCOP(=O)([O-])OCC[N+](C)(C)C [MILTEFOSINE]
IC50 (Leishmania donovani): 0.45 µM

Compound: Nc1ccc2c(=O)c3cc(N)ccc3[nH]c2c1
IC50 (Leishmania donovani): 288 µM | CC50 [3]: 23 µM | IC50 ([5]; Trypanosoma brucei, STIB900): 19.2 µM | IC50 (Plasmodium falciparum [7]): 4.8 µM | IC50 (Trypanosoma cruzi): 269 µM

Compound: CC(C)(C)OC(=O)N1CCN(C(=O)OC(C)(C)C)C1=Nc1ccc2[nH]c3ccc(N=C4N(C(=O)OC(C)(C)C)CCN4C(=O)OC(C)(C)C)cc3c(=O)c2c1
IC50 (Leishmania donovani): > 127 µM | CC50 [3]: 73 µM | IC50 ([5]; Trypanosoma brucei, STIB900): 2.2 µM | IC50 (Plasmodium falciparum [7]): 33 µM | IC50 (Trypanosoma cruzi): 50 µM

Compound: O=C(O)C(F)(F)F.O=C(O)C(F)(F)F.O=C1c2ccc(NC3=NCCN3)cc2C(=O)c2ccc(NC3=NCCN3)cc21
IC50 (Leishmania donovani): 145 µM | Activity [2]: 46% | CC50 [3]: 75 µM | Activity [9]: Active | Ratio CC50/IC50 [15]: 1229 | Activity (Hyperoartia [10]): Active | IC50 ([5]; Trypanosoma brucei, STIB900): 2.3 µM | IC50 (Plasmodium falciparum [7]): 0.06 µM | IC50 (Trypanosoma cruzi): 104 µM

Compound: COc1cc([C@@H]2c3cc4c(cc3[C@H](O)[C@H]3COC(=O)[C@H]23)OCO4)cc(OC)c1OC [PODOFILOX]
CC50 [3]: 0.012 µM

Compound: Nc1ccc(Nc2ccc([N+](=O)[O-])cc2C(=O)O)cc1
IC50 (Leishmania donovani): 23 µM | CC50 [3]: > 365 µM | IC50 ([5]; Trypanosoma brucei, STIB900): 55 µM | IC50 (Plasmodium falciparum [7]): 52 µM | IC50 (Trypanosoma cruzi): 292 µM

Compound: Cn1c2ccc(NC3=NCCN3)cc2c(=O)c2cc(NC3=NCCN3)ccc21.O=C(O)C(F)(F)F.O=C(O)C(F)(F)F
Ratio CC50/IC50 [1]: 468 | Activity [2]: 48% | CC50 [3]: 104 µM | Ratio CC50/IC50 [4]: 14843 | IC50 ([5]; Trypanosoma brucei, STIB900): 0.007 µM | IC50 (Plasmodium falciparum [6]; Plasmodium falciparum, NF54): 0.22 µM

Compound: Cl.Cl.O=c1c2cc(NC3=NCCN3)ccc2[nH]c2ccc(NC3=NCCN3)cc12
IC50 (Leishmania donovani): 177 µM | Time [8]: >45.5 days | Activity [2]: 49% | CC50 [3]: > 230 µM | Activity [9]: Active | Ratio CC50/IC50 [4]: >3333 | Ratio CC50/IC50 [15]: >666 | Activity [16]: inactive | Time [17]: 22 days | IC50 ([5]; Trypanosoma brucei, STIB900): 0.069 µM | IC50 (Plasmodium falciparum [7]): 0.34 µM | IC50 (Trypanosoma cruzi): > 230 µM

Compound: Nc1ccc2c(=O)c3cc([N+](=O)[O-])ccc3[nH]c2c1
IC50 (Leishmania donovani): 291 µM | CC50 [3]: 147 µM | IC50 ([5]; Trypanosoma brucei, STIB900): 67 µM | IC50 (Plasmodium falciparum [7]): 34 µM | IC50 (Trypanosoma cruzi): 279 µM

IC50 [5]: 0.062 µM | IC50 (Plasmodium falciparum [6]): 0.25 µM | IC50 (Trypanosoma cruzi): > 230 µM
Compound: Cl.Cl.O=c1c2ccc(NC3=NCCN3)cc2[nH]c2cc(NC3=NCCN3)ccc12
IC50 (Leishmania donovani): 113 µM | Ratio CC50/IC50 [1]: 546 | CC50 [3]: 137 µM | Activity (Mus musculus): Non-toxic | Ratio CC50/IC50 [4]: 2210 | Time [18]: 14 days

Compound: Nc1ccc2[nH]c3ccc([N+](=O)[O-])cc3c(=O)c2c1
IC50 (Leishmania donovani): 77 µM | CC50 [3]: 186 µM | IC50 ([5]; Trypanosoma brucei, STIB900): 19.5 µM | IC50 (Plasmodium falciparum [7]): 49 µM | IC50 (Trypanosoma cruzi): 287 µM

Compound: O=C(O)C(F)(F)F.O=C(O)C(F)(F)F.O=c1c2ccc(NC3=NCCN3)cc2[nH]c2cc(NC3=NCCN3)ccc12
Ratio CC50/IC50 [1]: 1149 | CC50 (L6): 99 µM | Ratio CC50/IC50 [4]: 1647 | IC50 ([5]; Trypanosoma brucei, STIB900): 0.06 µM | IC50 (Plasmodium falciparum [6]): 0.09 µM
